{"source": "patent US4068003A", "about": "“Method of medical treatment of myasthenia” (priority 1976, dated 1978)", "key": {"[1]": {"test": "Clinical test in myasthenia gravis, case [I] (person)", "format": "in vivo, human", "description": "(§1) The effects of the present invention for the treatment of myasthenia gravis will be shown with reference to the results of clinical tests.\nThey were attacked with myasthenia. […] Ambenonium is a cholinesterase inhibitor and available, for example, under the trademark Myterase. One year before the first medical examination in this hospital, they took 20 mg/day of Ambenonium.\nAt the first medical examination, drooping of the left eyelid, disorder in the movement of the left eyeball and fatiguing of the limbs were observed. […] The administration according to the recipe was continued for 30 days and, thereafter, dosage of Ambenonium was reduced to 10 mg/day (morning and evening: 5 mg each). This treatment was continued for a further period of 30 days."}, "[2]": {"test": "Clinical test in myasthenia gravis, case [II] (person)", "format": "in vivo, human", "description": "as §1\nThereafter, they took 20-25 mg/day of Ambenonium perorally intermittently.\nAt the first medical examination, eye symptoms such as eyelid drooping and double vision and evervation in limbs were remarkable. As for the walking ability, they barely walked 100 m even when the effect of Ambenonium was exerted.\nBy peroral administration of 25 mg/day of Ambenonium and 30 mg/day of Coenzyme Q10, muscular contraction was caused 2-3 days after the start of the treatment. Dosage of Ambenonium was reduced to 20 mg/day. After the treatment was continued according to this recipe for one week, the heavy feeling of the body, double vision and the eye symptoms were relieved. Continuous 400 m walking was made possible."}, "[3]": {"test": "Teratogenesis test, mice", "format": "in vivo", "settings": "mice, 6, 60, 600 mg/Kg/day"}, "[4]": {"test": "Teratogenesis test, rats", "format": "in vivo", "settings": "rats, 6, 60, 600 mg/Kg/day"}, "[5]": {"test": "Acute toxicity test, single high dose, rats", "format": "in vivo, rats of Wistar strain", "settings": "for Maximum dose (no case of deaths): single dose, 7 days observation", "source_text": "(§2) In order to evaluate the acute toxicity of a single high dose administration of Coenzyme Q10, male and female rats of Wistar strain and male and female mice of ICR-JCL strain were used, and oral, intramuscular, subcutaneous, and intravenous administrations were studied. For the oral administration of Coenzyme Q10, gum Arabic suspension was used. For the intramuscular, subcutaneous and intravenous administrations, Coenzyme Q10 was used as a solution containing a nonionic surfactant, Nikkol HCO-60. Nikkol HCO-60 is a trade mark of a non-ionic surfactant comprised of hydrogenated castor oil/polyoxyethylene-60 mole ether available from Nikko Chemicals, Co. Ltd., Japan.\n(§3) Observation was carried out for 7 days by using six males and six females for each dose group."}, "[6]": {"test": "Subacute oral toxicity test in rabbits (23 days)", "format": "in vivo", "description": "Coenzyme Q10 was compulsorily and orally administered every day for 23 days to each group consisting of 6 male rabbits and 5 female rabbits. The dose was 6, 60 and 600 mg/Kg/day, respectively. Coenzyme Q10 was used in the form of gum Arabic suspension, whereas the solution containing gum Arabic alone was used as the control group. On the 24th day, blood samples were collected from all the animals, and 3 males and 2 females from each group were then selectively autopsied."}, "[7]": {"test": "Clinical test in myasthenia gravis, case [III] (person)", "format": "in vivo, human", "source_text": "as §1\nThe patient was attacked by myasthenia. At the first medical examination, only eyelid drooping (eye fissure: left 5 mm, right 2 mm) was observed."}, "[8]": {"test": "Overall result of acute, subacute, chronic toxicity and teratogenesis tests", "format": "in vivo", "source_text": "as §2\n(§4) Coenzyme Q10 was compulsorily and orally administered every day for 5 weeks to each group consisting of 10 male rats and 10 female rats of Wistar strain. The dose was 40, 200, and 1000 mg/Kg/day, respectively. Coenzyme Q10 was used in the form of gum Arabic suspension, while the solution containing gum Arabic alone was used as the control group. Collection of blood and urine samples and autopsies were carried out 5 weeks after the initiation of administration.\nCoenzyme Q10 was compulsorily and orally administered every day for 23 days to each group consisting of 6 male rabbits and 5 female rabbits. The dose was 6, 60 and 600 mg/Kg/day, respectively. […]"}, "[9]": {"test": "Acute toxicity test, single high dose, mice", "format": "in vivo, mice of ICR-JCL strain", "settings": "for Maximum dose (no case of deaths): single dose, 7 days observation", "source_text": "as §2, §3"}, "[10]": {"test": "Chronic oral toxicity test (26 weeks)", "format": "in vivo, rats of Wistar strain", "description": "Coenzyme Q10 was compulsorily and orally administered to each group consisting of 10 male rats and 10 female rats of Wistar strain for consecutive 26 weeks in a ratio of 6 days a week. The dose was 6, 60 and 600 mg/Kg/day, respectively. Coenzyme Q10 was used in the form of gum Arabic suspension, whereas the solution containing gum Arabic alone is used as the control group. Collection of blood and urine samples and autopsies were carried out 26 weeks after the administration."}, "[11]": {"test": "Subacute oral toxicity test in rats (5 weeks)", "format": "in vivo, rats of Wistar strain", "description": "as §4"}, "[12]": {"settings": "all routes, maximum doses of Table 1"}, "[13]": {"settings": "any administration group, 7 days"}, "[14]": {"settings": "at the maximum dose in each administration route"}, "[15]": {"settings": "intramuscular, Nikkol HCO-60 solution"}, "[16]": {"settings": "intravenous, Nikkol HCO-60 solution"}, "[17]": {"settings": "subcutaneous, Nikkol HCO-60 solution"}, "[18]": {"settings": "rabbits, 6, 60, 600 mg/Kg/day oral, 23 days"}, "[19]": {"settings": "Coenzyme Q10 30 mg/day peroral in combination with Distigmine Bromide"}, "[20]": {"settings": "Coenzyme Q10 30 mg/day, Ambenonium reduced to 20 mg/day, one week"}, "[21]": {"settings": "group not stated, spontaneous pneumonia and aspiration pneumonia due to erroneous administration"}, "[22]": {"settings": "rats, 6, 60, 600 mg/Kg/day oral, 26 weeks, vs control group"}, "[23]": {"settings": "rats, 40, 200, 1000 mg/Kg/day oral, 5 weeks"}}}
{"compound": "CC[N+](CC)(CCNC(=O)C(=O)NCC[N+](CC)(CC)Cc1ccccc1Cl)Cc1ccccc1Cl", "note": "[Ambenonium]", "values": [{"measurement": "improvement in the symptoms", "setting": "[1]; Ambenonium alone, 20 mg/day peroral, 4 months", "value": "no significant improvement in the symptoms"}, {"measurement": "walking ability", "setting": "[2]; at first medical examination, under effect of Ambenonium, before Coenzyme Q10, barely walked", "value": "~100", "unit": "m"}]}
{"compound": "COC1=C(OC)C(=O)C(C/C=C(\\C)CC/C=C(\\C)CC/C=C(\\C)CC/C=C(\\C)CC/C=C(\\C)CC/C=C(\\C)CC/C=C(\\C)CC/C=C(\\C)CC/C=C(\\C)CCC=C(C)C)=C(C)C1=O", "note": "[Coenzyme Q10]", "values": [{"measurement": "adverse effects in mothers, fetuses, and newborns", "setting": "[3]", "value": "no adverse effects"}, {"measurement": "adverse effects in mothers, fetuses, and newborns", "setting": "[4]", "value": "no adverse effects"}, {"measurement": "toxicity (acute)", "setting": "[5]", "value": "extremely low"}, {"measurement": "LD50", "setting": "[5]; [12]", "value": "far higher than the maximum dose mentioned above"}, {"measurement": "general condition, body weight, food intake and autopsy findings", "setting": "[5]; [13]", "value": "no change"}, {"measurement": "deaths", "setting": "[5]; [14]", "value": "no case of deaths"}, {"measurement": "Maximum dose (no case of deaths)", "setting": "[5]; [15]", "value": 500, "unit": "mg/kg"}, {"measurement": "Maximum dose (no case of deaths)", "setting": "[5]; [16]", "value": 250, "unit": "mg/kg"}, {"measurement": "Maximum dose (no case of deaths)", "setting": "[5]; oral, gum Arabic suspension", "value": 4000, "unit": "mg/kg"}, {"measurement": "Maximum dose (no case of deaths)", "setting": "[5]; [17]", "value": 500, "unit": "mg/kg"}, {"measurement": "walking and work ability", "setting": "[1]; 30 days combination, then Ambenonium reduced to 10 mg/day for further 30 days", "value": "long distance walking and light work became possible"}, {"measurement": "symptoms after further reduction of Ambenonium", "setting": "[1]; Ambenonium reduced to 5 mg/day", "value": "no worsening of the symptoms was caused and the patient is now getting better"}, {"measurement": "improvement in symptoms (walking, breathing)", "setting": "[1]; Coenzyme Q10 30 mg/day peroral in combination with Ambenonium, at the start", "value": "an improvement in walking and relief in a feeling of difficulty in breathing"}, {"measurement": "electron-microscopic observation of liver (minute structure)", "setting": "[6]; 7th, 14th and 24th days", "value": "not recognized abnormal findings"}, {"measurement": "macroscopical and histological observation", "setting": "[6]; hematoxylin.Eosine staining and liver fat staining, 23 days", "value": "abnormalities were not recognized"}, {"measurement": "hematological test and biochemical test of blood", "setting": "[6]; [18]", "value": "Abnormal findings were not obtained"}, {"measurement": "weight of each organ", "setting": "[6]; [18]", "value": "no effect"}, {"measurement": "general condition and increase of body weight", "setting": "[6]; rabbits, 6, 60, 600 mg/Kg/day oral, 23 days, vs control group", "value": "no difference"}, {"measurement": "toxicity (subacute oral)", "setting": "[6]; rabbits, 23 days", "value": "not recognized"}, {"measurement": "ascending and descending stairs", "setting": "[7]; [19]", "value": "could ascend and descend stairs easily"}, {"measurement": "need for the dropping lotion", "setting": "[7]; [19]", "value": "became unnecessary"}, {"measurement": "opening of the eyelids", "setting": "[7]; [19]", "value": "improve and to stabilize the opening of the eyelids"}, {"measurement": "walking straight looking ahead", "setting": "[7]; Coenzyme Q10 30 mg/day peroral in combination with Distigmine Bromide, difficult before", "value": "could walk easily"}, {"measurement": "time to muscular contraction after start of treatment", "setting": "[2]; Coenzyme Q10 30 mg/day with Ambenonium 25 mg/day, peroral", "value": "2 to 3", "unit": "days"}, {"measurement": "continuous walking made possible", "setting": "[2]; [20]", "value": 400, "unit": "m"}, {"measurement": "heavy feeling of the body, double vision and eye symptoms", "setting": "[2]; [20]", "value": "relieved"}, {"measurement": "overall safety", "setting": "[8]", "value": "very safe drug, without side-effects"}, {"measurement": "toxicity (acute)", "setting": "[9]", "value": "extremely low"}, {"measurement": "LD50", "setting": "[9]; [12]", "value": "far higher than the maximum dose mentioned above"}, {"measurement": "general condition, body weight, food intake and autopsy findings", "setting": "[9]; [13]", "value": "no change"}, {"measurement": "deaths", "setting": "[9]; [14]", "value": "no case of deaths"}, {"measurement": "Maximum dose (no case of deaths)", "setting": "[9]; [15]", "value": 500, "unit": "mg/kg"}, {"measurement": "Maximum dose (no case of deaths)", "setting": "[9]; [16]", "value": 250, "unit": "mg/kg"}, {"measurement": "Maximum dose (no case of deaths)", "setting": "[9]; oral, gum Arabic suspension", "value": 4000, "unit": "mg/kg"}, {"measurement": "Maximum dose (no case of deaths)", "setting": "[9]; [17]", "value": 500, "unit": "mg/kg"}, {"measurement": "deaths, females", "setting": "[10]; [21]", "value": 3, "unit": "females"}, {"measurement": "deaths, males", "setting": "[10]; [21]", "value": 11, "unit": "males"}, {"measurement": "macroscopical and histological observation", "setting": "[10]; hemoxylin.Eosine staining and liver fat staining, 26 weeks, vs control group", "value": "abnormalities were not recognized"}, {"measurement": "body weight", "setting": "[10]; [22]", "value": "increased the same as that of the control group"}, {"measurement": "general condition", "setting": "[10]; [22]", "value": "no difference"}, {"measurement": "toxicity (chronic oral)", "setting": "[10]; rats, 26 weeks", "value": "no toxicity was observed"}, {"measurement": "weights of organs", "setting": "[10]; rats, 26 weeks", "value": "no significant increase and decrease"}, {"measurement": "biochemical tests of blood and urine", "setting": "[10]; rats, 26 weeks, vs control group", "value": "No significant changes"}, {"measurement": "leukocytal percentages (hematological findings)", "setting": "[10]; rats, 26 weeks, some increase and decrease, not dose-related", "value": "within the range of physiological fluctuations"}, {"measurement": "dead animals during the experiment", "setting": "[11]; group not stated, spontaneous pneumonia and aspiration pneumonia due to error of administration", "value": 4, "unit": "animals"}, {"measurement": "toxicity (subacute oral)", "setting": "[11]; rats, 5 weeks", "value": "not recognized"}, {"measurement": "hematological test and biochemical test of blood and urine", "setting": "[11]; [23]", "value": "No significant change"}, {"measurement": "weight of each organ", "setting": "[11]; [23]", "value": "no significant change"}, {"measurement": "general condition and body weight", "setting": "[11]; rats, 40, 200, 1000 mg/Kg/day oral, 5 weeks, vs control group", "value": "no difference"}]}
{"compound": "CN(CCCCCCN(C)C(=O)Oc1ccc[n+](C)c1)C(=O)Oc1ccc[n+](C)c1", "note": "[Distigmine Bromide]", "values": [{"measurement": "eye fissure, left", "setting": "[7]; Distigmine Bromide 10 mg/day peroral plus 0.5 % eye drops, 6 months, before: left 5 mm", "value": 6, "unit": "mm"}, {"measurement": "eye fissure, right", "setting": "[7]; Distigmine Bromide 10 mg/day peroral plus 0.5 % eye drops, 6 months, before: right 2 mm", "value": 4, "unit": "mm"}, {"measurement": "symptoms (eyelid drooping)", "setting": "[7]; Distigmine Bromide peroral plus eye drops, 6 months", "value": "improved a little"}]}
